This passage reports IC50 results from ChEMBL document CHEMBL4382290, “Tetrahydroisoquinoline CXCR4 Antagonists Adopt a Hybrid Binding Mode within the Peptide Subpocket of the CXCR4 Receptor” (ACS Med Chem Lett, 2019).

For the test, the system named is Human immunodeficiency virus 1. The test is described as follows: Antiviral activity against CXCR4 tropic HIV1 3B infected in human MAGI-CCR5/CXCR4 cells measured after 2 to 6 days by beta-galactosidase reporter gene assay. Type of test: functional, organism-based. The note with it: Human immunodeficiency virus 1, 3B.

Bounds are passed on as bounds.

The IC50 is the concentration at which inhibition is half-maximal. A lower IC50 goes with inhibition by little substance. In turn, `NCCCCN(C[C@H]1NCCc2ccccc21)[C@H]1CCCc2cccnc21` showed an IC50 of 0.45 µM. In turn, `NCCCCN(C[C@@H]1Cc2ccccc2CN1)[C@H]1CCCc2cccnc21` registered an IC50 of 1.4 µM.

Compound `NCCCCN(C[C@@H]1NCCc2ccccc21)[C@H]1CCCc2cccnc21` came in with an IC50 of 30 µM. `NCCCCN(C[C@@H]1CCc2ccccc2N1)[C@H]1CCCc2cccnc21` yielded an IC50 of 30 µM.

As to `NCCCCN(C[C@H]1CCc2ccccc2N1)[C@H]1CCCc2cccnc21`, half-maximal inhibition (IC50) was put at 0.25 µM. Under `NCCCCN(C[C@H]1Cc2ccccc2CN1)[C@H]1CCCc2cccnc21` stands 0.005 µM.

Consider `Cc1ccc(-c2ccc3c(c2)C=C(C(=O)Nc2ccc(C[N+](C)(C)C4CCOCC4)cc2)CCC3)cc1`, for which the IC50 is greater than 10 µM. Under `NCCCCN(C[C@H]1CCCCN1)[C@H]1CCCc2cccnc21` stands 1.12 µM.

The compound `NCCCN(C[C@H]1Cc2ccccc2CN1)[C@H]1CCCc2cccnc21` gave an IC50 of 0.38 µM. For `NCCCCCN(C[C@H]1Cc2ccccc2CN1)[C@H]1CCCc2cccnc21` the value was 0.17 µM; for `NCCN(C[C@H]1Cc2ccccc2CN1)[C@H]1CCCc2cccnc21`, 6.2 µM. Under `NCCCCN(C[C@H]1Cc2ccccc2CN1)[C@H]1CCCc2ccccc21` stands 1.5 µM.
